From patent US11629129B2, “Microbiocidal picolinamide derivatives” (SYNGENTA PARTICIPATIONS AG, priority 2018, dated 2023)

Tests used:
[1] = tested on: Glomerella lagenarium (Colletotrichum lagenarium); assay: Glomerella lagenarium (Colletotrichum lagenarium)/Liquid Culture (Anthracnose); type: cell-based; details: Colletotrichum orbiculare; 200 ppm in the formulation; liquid culture, growth inhibition photometrically 3 to 4 days after application; compared to untreated control; read-out: disease control
Method: Glomerella lagenarium (Colletotrichum lagenarium)/Liquid Culture (Anthracnose) Conidia of the fungus from cryogenic storage are directly mixed into nutrient broth (PDB potato dextrose broth). After placing a (DMSO) solution of test compound into a microtiter plate (96-well format), the nutrient broth containing the fungal spores is added. The test plates are incubated at 24° C. and the inhibition of growth is measured photometrically 3 to 4 days after application.

[2] = tested on: Monographella nivalis (Microdochium nivale); assay: Monographella nivalis (Microdochium nivale)/Liquid Culture (Foot Rot Cereals); type: cell-based; details: 200 ppm in the formulation, liquid culture, growth inhibition photometrically 4-5 days after application, compared to untreated control, read-out: disease control
Method: Monographella nivalis (Microdochium nivale)/Liquid Culture (Foot Rot Cereals) Conidia of the fungus from cryogenic storage are directly mixed into nutrient broth (PDB potato dextrose broth). After placing a (DMSO) solution of test compound into a microtiter plate (96-well format), the nutrient broth containing the fungal spores is added. The test plates are incubated at 24° C. and the inhibition of growth is determined photometrically 4-5 days after application.

[3] = tested on: Mycosphaerella arachidis (Cercospora arachidicola); assay: Mycosphaerella arachidis (Cercospora arachidicola)/Liquid Culture (Early Leaf Spot); type: cell-based; details: 200 ppm in the formulation, liquid culture, growth inhibition photometrically 4-5 days after application, compared to untreated control, read-out: disease control
Method: Mycosphaerella arachidis (Cercospora arachidicola)/Liquid Culture (Early Leaf Spot) Conidia of the fungus from cryogenic storage are directly mixed into nutrient broth (PDB potato dextrose broth). After placing a (DMSO) solution of test compound into a microtiter plate (96-well format), the nutrient broth containing the fungal spores is added. The test plates are incubated at 24° C. and the inhibition of growth is determined photometrically 4-5 days after application.

[4] = tested on: Mycosphaerella graminicola (Septoria tritici); assay: Mycosphaerella graminicola (Septoria tritici)/Liquid Culture (Septoria Blotch); type: cell-based; details: Zymoseptoria tritici; 200 ppm in the formulation; liquid culture, growth inhibition photometrically 4 to 5 days after application; compared to untreated control; read-out: disease control
Method: Mycosphaerella graminicola (Septoria tritici)/Liquid Culture (Septoria Blotch) Conidia of the fungus from cryogenic storage are directly mixed into nutrient broth (PDB potato dextrose broth). After placing a (DMSO) solution of test compound into a microtiter plate (96-well format), the nutrient broth containing the fungal spores is added. The test plates are incubated at 24° C. and the inhibition of growth is determined photometrically 4 to 5 days after application.

[5] = tested on: Phaeosphaeria nodorum (Septoria nodorum); assay: Phaeosphaeria nodorum (Septoria nodorum)/Wheat/Leaf Disc Preventative (Glume Blotch); type: in vivo; details: Parastagonospora nodorum, foliar; 200 ppm in the formulation; wheat leaf segments cv. Kanzler, inoculated 2 days after application, assessed 5-7 days after application; compared to untreated; read-out: disease control
Method: Phaeosphaeria nodorum (Septoria nodorum)/Wheat/Leaf Disc Preventative (Glume Blotch) Wheat leaf segments cv. Kanzler are placed on agar in a multiwell plate (24-well format) and sprayed with the formulated test compound diluted in water. The leaf disks are inoculated with a spore suspension of the fungus 2 days after application. The inoculated test leaf disks are incubated at 20° C. and 75% rh under a light regime of 12 h light/12 h darkness in a climate cabinet and the activity of a compound is assessed as percent disease control compared to untreated when an appropriate level of disease damage appears in untreated check leaf disks (5-7 days after application).

[6] = tested on: Puccinia recondita f. sp. tritici; assay: Puccinia recondita f. sp. tritici/Wheat/Leaf Disc Preventative (Brown Rust); type: in vivo; details: foliar, 200 ppm in the formulation, wheat leaf segments cv. Kanzler, inoculated 1 day after application, assessed 7-9 days after application, compared to untreated, read-out: disease control
Method: Puccinia recondita f. sp. tritici/Wheat/Leaf Disc Preventative (Brown Rust) Wheat leaf segments cv. Kanzler are placed on agar in multiwell plates (24-well format) and sprayed with the formulated test compound diluted in water. The leaf disks are inoculated with a spore suspension of the fungus 1 day after application. The inoculated leaf segments are incubated at 19° C. and 75% rh under a light regime of 12 h light/12 h darkness in a climate cabinet and the activity of a compound is assessed as percent disease control compared to untreated when an appropriate level of disease damage appears in untreated check leaf segments (7-9 days after application).

[7] = tested on: Botryotinia fuckeliana (Botrvtis cinerea); assay: Botryotinia fuckeliana (Botrvtis cinerea)/Liquid Culture (Gray Mould); type: cell-based; details: Botrytis cinerea; 200 ppm in the formulation; liquid culture, growth inhibition photometrically 3-4 days after application; compared to untreated control; read-out: disease control
Method: Botryotinia fuckeliana (Botrvtis cinerea)/Liquid Culture (Gray Mould) Conidia of the fungus from cryogenic storage are directly mixed into nutrient broth (Vogels broth). After placing a (DMSO) solution of test compound into a microtiter plate (96-well format), the nutrient broth containing the fungal spores is added. The test plates are incubated at 24° C. and the inhibition of growth is determined photometrically 3-4 days after application.

COc1ccnc(C(=O)N[C@@H](C)C(=O)O[C@@H](C)c2ccc(-c3ccc(C)cc3)cc2)c1O [I.w.001, [(1S)-1-[4-(p-tolyl)phenyl]ethyl] (2S)-2-[(3-hydroxy-4-methoxy-pyridine-2-carbonyl)amino] propanoate]
≥ 80%: inhibition of growth at 200 ppm [1] | inhibition of growth at 200 ppm [2] | inhibition of growth at 200 ppm [3] | inhibition of growth at 200 ppm [4] | pest or weed control at 200 ppm [5] | pest or weed control at 200 ppm [6]

COc1ccnc(C(=O)N[C@@H](C)C(=O)O[C@@H](C)c2ccc(Oc3ccc(Cl)cc3Cl)cc2)c1O [I.aw.001, [(1S)-1-[4-(2,4-dichlorophenoxy)phenyl]ethyl] (2S)-2-[(3-hydroxy-4-methoxy-pyridine-2-carbonyl)amino] propanoate]
≥ 80%: inhibition of growth at 200 ppm [1] | inhibition of growth at 200 ppm [3] | inhibition of growth at 200 ppm [4] | pest or weed control at 200 ppm [5] | pest or weed control at 200 ppm [6]

COc1ccnc(C(=O)N[C@@H](C)C(=O)O[C@@H](C)c2ccc(-c3ccc(C(F)(F)F)cc3)cc2)c1O [I.x.001, [(1S)-1-[4-[4-(trifluoromethyl)phenyl]phenyl]ethyl] (2S)-2-[(3-hydroxy-4-methoxy-pyridine-2-carbonyl)amino] propanoate]
≥ 80%: inhibition of growth at 200 ppm [7] | inhibition of growth at 200 ppm [1] | inhibition of growth at 200 ppm [2] | inhibition of growth at 200 ppm [3] | inhibition of growth at 200 ppm [4] | pest or weed control at 200 ppm [6]

CCc1ccccc1-c1ccc([C@H](C)OC(=O)[C@H](C)NC(=O)c2nccc(OC)c2O)cc1 [I.i.001, [(1S)-1-[4-(2-ethylphenyl)phenyl]ethyl] (2S)-2-[(3-hydroxy-4-methoxy-pyridine-2-carbonyl)amino] propanoate]
≥ 80%: inhibition of growth at 200 ppm [1] | inhibition of growth at 200 ppm [3] | inhibition of growth at 200 ppm [4] | pest or weed control at 200 ppm [5] | pest or weed control at 200 ppm [6]

COc1ccnc(C(=O)N[C@@H](C)C(=O)O[C@@H](C)c2ccc(-c3ccccc3)c(F)c2)c1O [I.e.001, [(1S)-1-(3-fluoro-4-phenyl-phenyl)ethyl] (2S)-2-[(3-hydroxy-4-methoxy-pyridine-2-carbonyl)amino] propanoate]
≥ 80%: inhibition of growth at 200 ppm [7] | inhibition of growth at 200 ppm [1] | inhibition of growth at 200 ppm [2] | inhibition of growth at 200 ppm [3] | inhibition of growth at 200 ppm [4] | pest or weed control at 200 ppm [6]

COc1ccnc(C(=O)N[C@@H](C)C(=O)O[C@@H](C)c2ccc(-c3ccccc3)cc2)c1OC(C)=O [I.d.019, [(1S)-1-(4-phenylphenyl)ethyl] (2S)-2-[(3-acetoxy-4-methoxy-pyridine-2-carbonyl)amino] propanoate]
≥ 80%: inhibition of growth at 200 ppm [4] | pest or weed control at 200 ppm [5] | pest or weed control at 200 ppm [6]

COc1ccnc(C(=O)N[C@@H](C)C(=O)O[C@@H](C)c2ccc(Oc3cccc(C(F)(F)F)c3)cc2)c1O [I.ax.001, [(1S)-1-[4-[3-(trifluoromethyl)phenoxy]phenyl]ethyl] (2S)-2-[(3-hydroxy-4-methoxy-pyridine-2-carbonyl)amino] propanoate]
≥ 80%: inhibition of growth at 200 ppm [1] | inhibition of growth at 200 ppm [3] | inhibition of growth at 200 ppm [4] | pest or weed control at 200 ppm [5] | pest or weed control at 200 ppm [6]

COc1cc(-c2ccc([C@H](C)OC(=O)[C@H](C)NC(=O)c3nccc(OC)c3O)cc2)ccn1 [I.ba.001, [(1S)-1-[4-(2-methoxy-4-pyridyl)phenyl]ethyl] (2S)-2-[(3-hydroxy-4-methoxy-pyridine-2-carbonyl)amino] propanoate]
≥ 80%: inhibition of growth at 200 ppm [1] | inhibition of growth at 200 ppm [2] | inhibition of growth at 200 ppm [3] | inhibition of growth at 200 ppm [4] | pest or weed control at 200 ppm [5] | pest or weed control at 200 ppm [6]

COc1ccnc(C(=O)N[C@@H](C)C(=O)O[C@@H](C)c2ccc(-c3ccc(Br)cc3)cc2)c1OC(C)=O [I.v.019, [(1S)-1-[4-(4-bromophenyl)phenyl]ethyl] (2S)-2-[(3-acetoxy-4-methoxy-pyridine-2-carbonyl)amino] propanoate]
≥ 80%: inhibition of growth at 200 ppm [2] | inhibition of growth at 200 ppm [3] | inhibition of growth at 200 ppm [4] | pest or weed control at 200 ppm [5] | pest or weed control at 200 ppm [6]

COc1ccnc(C(=O)N[C@@H](C)C(=O)O[C@@H](C)c2ccc(Oc3ccc(C(F)(F)F)cc3Cl)cc2)c1O [I.az.001, [(1S)-1-[4-[2-chloro-4-(trifluoromethyl)phenoxy]phenyl]ethyl] (2S)-2-[(3-hydroxy-4-methoxy-pyridine-2-carbonyl)amino] propanoate]
≥ 80%: inhibition of growth at 200 ppm [1] | inhibition of growth at 200 ppm [3] | inhibition of growth at 200 ppm [4] | pest or weed control at 200 ppm [5]

COc1ccnc(C(=O)N[C@@H](C)C(=O)O[C@@H](C)c2ccc(-c3cccc(Cl)c3)cc2)c1O [I.r.001, [(1SS)-1-[4-(3-chlorophenyl)phenyl]ethyl] (2S)-2-[(3-hydroxy-4-methoxy-pyridine-2-carbonyl)amino] propanoate]
≥ 80%: inhibition of growth at 200 ppm [7] | inhibition of growth at 200 ppm [1] | inhibition of growth at 200 ppm [2] | inhibition of growth at 200 ppm [3] | inhibition of growth at 200 ppm [4] | pest or weed control at 200 ppm [6]

COc1ccnc(C(=O)N[C@@H](C)C(=O)O[C@@H](C)c2ccc(-c3ccccc3)cc2)c1O [I.d.001, [(1S)-1-(4-phenylphenyl)ethyl] (2S)-2-[(3-hydroxy-4-methoxy-pyridine-2-carbonyl)amino] propanoate]
≥ 80%: inhibition of growth at 200 ppm [7] | inhibition of growth at 200 ppm [1] | inhibition of growth at 200 ppm [2] | inhibition of growth at 200 ppm [3] | inhibition of growth at 200 ppm [4] | pest or weed control at 200 ppm [6]

COc1ccnc(C(=O)N[C@@H](C)C(=O)O[C@@H](C)c2ccc(-c3ccc(Cl)cc3)cc2)c1O [I.u.001, [(1S)-1-[4-(4-chlorophenyl)phenyl]ethyl] (2S)-2-[(3-hydroxy-4-methoxy-pyridine-2-carbonyl)amino] propanoate]
≥ 80%: inhibition of growth at 200 ppm [7] | inhibition of growth at 200 ppm [1] | inhibition of growth at 200 ppm [2] | inhibition of growth at 200 ppm [3] | inhibition of growth at 200 ppm [4] | pest or weed control at 200 ppm [6]
